Laboratory results: PubChem BioAssay (NCI)
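Growth conditions: 96-well plates. Treatment: test compound, 48 hours, 5 concentrations. Analysis: linear interpolation between bracketing concentrations; unreached endpoints set to highest concentration. Abbreviation: GI50, concentration required for 50% inhibition of growth. TGI: total growth inhibition.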

Legend:
Assay in all cases: inhibition of tumour cell growth, NCI panel, 48 h
[1] = test system: CAKI-1 renal
[2] = test system: UO-31 renal
[3] = test system: HOP-92 NSCLC
[4] = test system: SK-OV-3 ovarian
[5] = test system: SF-295 CNS
[6] = test system: M19-MEL melanoma
[7] = test system: DLD-1 colon
[8] = test system: ACHN renal
[9] = test system: M14 melanoma
[10] = test system: MCF7 breast

O=C1c2ccccc2C(=O)C12CCc1ccccc12
TGI [1]: > 100 µM
TGI [2]: > 100 µM
TGI [3]: > 100 µM
TGI [4]: > 100 µM
TGI [5]: > 100 µM
TGI [6]: > 100 µM
TGI [7]: > 100 µM
TGI [8]: > 100 µM
TGI [9]: > 100 µM

COc1ccc(/C=C2\CCC(CCN(C)C)(C3=CCCC3)C2=O)cc1 (centres undefined)
TGI [1]: 22.8 µM
TGI [2]: 28.2 µM
TGI [3]: 54.1 µM
TGI [5]: 33.4 µM
TGI [6]: 28.4 µM
TGI [7]: 79.2 µM
TGI [8]: 31.2 µM
TGI [9]: 28.3 µM

CC(=O)OC(C(=O)[O][Sn]([CH3])([CH3])[CH3])c1ccccc1 (centres undefined)
GI50 [1]: > 100 µM
TGI [1]: > 100 µM
GI50 [2]: > 100 µM
TGI [2]: > 100 µM
GI50 [3]: > 100 µM
TGI [3]: > 100 µM
GI50 [4]: > 100 µM
TGI [4]: > 100 µM
GI50 [5]: > 100 µM
TGI [5]: > 100 µM
GI50 [6]: > 100 µM
TGI [6]: > 100 µM
GI50 [7]: > 100 µM
TGI [7]: > 100 µM
GI50 [8]: > 100 µM
TGI [8]: > 100 µM
GI50 [9]: > 100 µM
TGI [9]: > 100 µM

N=c1c2ccccc2sc2nc3ccccc3n12
TGI [1]: > 100 µM
TGI [2]: > 100 µM
TGI [3]: > 100 µM
TGI [4]: > 100 µM
TGI [5]: > 100 µM
TGI [6]: > 100 µM
TGI [7]: > 100 µM
TGI [8]: > 100 µM

CN(C)C(=S)/N=c1\ssc(=S)n1C
TGI [1]: > 100 µM
TGI [2]: > 100 µM
TGI [3]: > 100 µM
TGI [4]: > 100 µM
TGI [5]: > 100 µM
TGI [6]: > 100 µM
TGI [7]: > 100 µM
TGI [8]: > 100 µM
TGI [9]: > 100 µM

CC1=Nc2ccccc2SC(c2c(Cl)cccc2Cl)C1 (centres undefined)
TGI [1]: 5.3 µM
TGI [2]: 3.09 µM
TGI [3]: 3.62 µM
TGI [4]: 6.44 µM
TGI [5]: 2.79 µM
TGI [6]: 2.44 µM
TGI [7]: 1.42 µM
TGI [8]: 3.19 µM
TGI [9]: 3.07 µM

CN/N=C(/c1nc2ccc([N+](=O)[O-])cc2[nH]c1=O)C(O)c1ccc(C(O)/C(=N\NC)c2nc3ccc([N+](=O)[O-])cc3[nH]c2=O)cc1 (centres undefined)
TGI [1]: > 100 µM
TGI [2]: > 100 µM
TGI [3]: > 100 µM
TGI [4]: > 100 µM
TGI [5]: > 100 µM
TGI [6]: > 100 µM
TGI [7]: > 100 µM
TGI [8]: > 100 µM
TGI [9]: > 100 µM

COc1cc2c(c3c1c(=O)c1ccccc1n3C)C=CC(C)(C)O2
TGI [1]: > 100 µM
TGI [2]: > 100 µM
TGI [3]: > 100 µM
TGI [4]: > 100 µM
TGI [5]: > 100 µM
TGI [6]: > 100 µM
TGI [7]: > 100 µM
TGI [8]: > 100 µM
TGI [9]: > 100 µM

CCOc1cccc2c1N[S@@](=O)S2
TGI [1]: > 100 µM
TGI [2]: > 100 µM
TGI [3]: > 100 µM
TGI [4]: > 100 µM
TGI [5]: > 100 µM
TGI [6]: > 100 µM
TGI [7]: > 100 µM
TGI [8]: > 100 µM
TGI [9]: > 100 µM

CCOc1ccc(N=C2NC(=O)C(CC(=O)Nc3ccccc3[N+](=O)[O-])S2)cc1 (centres undefined)
TGI [1]: > 100 µM
TGI [2]: > 100 µM
TGI [3]: > 100 µM
TGI [5]: > 100 µM
TGI [6]: > 100 µM
TGI [7]: > 100 µM
TGI [8]: > 100 µM
TGI [9]: > 100 µM

COc1ccc(/C=C(\NC(=O)c2ccccc2)c2nc3ccccc3[nH]2)cc1OC
TGI [1]: > 100 µM
TGI [2]: > 100 µM
TGI [3]: > 100 µM
TGI [4]: > 100 µM
TGI [5]: > 100 µM
TGI [6]: > 100 µM
TGI [7]: > 100 µM
TGI [8]: > 100 µM
TGI [9]: > 100 µM

C1=Cc2nc1c(-c1ccccc1)c1ccc([nH]1)c(-c1ccccc1)c1nc(c(-c3ccccc3)c3ccc([nH]3)c2-c2ccccc2)C=C1
TGI [1]: > 100 µM
TGI [2]: > 100 µM
TGI [3]: > 100 µM
TGI [4]: > 100 µM
TGI [5]: > 100 µM
TGI [6]: > 100 µM
TGI [7]: > 100 µM
TGI [8]: > 100 µM
TGI [9]: > 100 µM

Clc1ccccc1CN1COc2c(ccc3cccnc23)C1
TGI [1]: 12.8 µM
TGI [2]: 7.2 µM
TGI [3]: 7.6 µM
TGI [4]: 19.9 µM
TGI [5]: 10.6 µM
TGI [6]: 15.1 µM
TGI [7]: 17.5 µM
TGI [8]: 13.2 µM
TGI [9]: 10.8 µM

CCCC(=O)N[C@H]1CCc2cc(OC)c(OC)c(OC)c2-c2ccc(SC)c(=O)cc21
TGI [1]: 14.1 µM
TGI [2]: > 100 µM
TGI [10]: > 100 µM
TGI [3]: 2.51 µM
TGI [4]: 5.75 µM
TGI [5]: < 0.01 µM
TGI [6]: > 100 µM
TGI [7]: > 100 µM
TGI [8]: > 57.1 µM
TGI [9]: 34.7 µM

COC(=O)C(=O)C(CC(=O)Nc1ccc(C)cc1)C(=O)OC (centres undefined)
TGI [1]: > 100 µM
TGI [2]: > 100 µM
TGI [3]: > 100 µM
TGI [4]: > 100 µM
TGI [5]: > 100 µM
TGI [6]: > 100 µM
TGI [7]: > 100 µM
TGI [8]: > 100 µM
TGI [9]: > 100 µM

C=C1C(=O)C23[C@H](O)C1CC[C@H]2[C@]12COC3(O)[C@@H](O)[C@@H]1C(C)(C)CC[C@@H]2O
TGI [1]: 4.89 µM
TGI [2]: 29 µM
TGI [3]: 10.1 µM
TGI [4]: 31 µM
TGI [5]: 32.2 µM
TGI [6]: 26.3 µM
TGI [7]: 25.1 µM
TGI [8]: 30.2 µM
TGI [9]: 18.5 µM

CN(C)c1ccc(/C=C(\NC(=O)c2ccccc2)c2nc3ccc4c(c3[nH]2)C(=O)c2ccccc2C4=O)cc1
TGI [1]: > 100 µM
TGI [2]: 7.37 µM
TGI [3]: 97.3 µM
TGI [4]: > 100 µM
TGI [5]: > 100 µM
TGI [6]: > 100 µM
TGI [7]: 55.7 µM
TGI [9]: > 100 µM
